One block for each molecule: values may come before it.
How the values were obtained:
[1] = target: GDP-bound KRAS wild-type protein (Homo sapiens, UniProt P01116); test: Binding to KRAS by surface plasmon resonance (SPR), dissociation constant KD; conditions: Single Cycle Kinetics, 1:1 binding model
Summary of the method: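 Compound binding is evaluated by SPR single-cycle kinetics, with concentrations added intermittently from low to high for 75 s each. Target surfaces carry GDP-loaded biotinylated Avi-RAS at about 100–300 RU, regenerated after each cycle; temperature 30°C. A 1:1 binding model gives KD.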

[2] = target: GDP-bound NRAS wild-type protein (Homo sapiens, UniProt P01111); test: Binding to NRAS by surface plasmon resonance (SPR), KD and KD ratio to KRAS; conditions: ratio of the KD value with respect to GDP-bound NRAS wild-type protein to the KD value with respect to KRAS
Sequence of GDP-bound NRAS wild-type protein (P01111 whole entry): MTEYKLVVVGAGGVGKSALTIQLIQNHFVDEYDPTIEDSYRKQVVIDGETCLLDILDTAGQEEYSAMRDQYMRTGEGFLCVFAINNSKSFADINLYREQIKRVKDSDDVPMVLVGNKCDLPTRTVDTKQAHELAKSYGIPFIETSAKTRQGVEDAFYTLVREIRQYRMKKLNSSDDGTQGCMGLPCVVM
Summary of the method: (§1)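 Biotinylated GDP-bound RAS was captured at about 100–300 RU. Running buffer: HBS pH 7.4, 10 mM MgCl2, 10 µM GDP, 1 mM DTT, 0.01% Tween 20, 4% DMSO.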

HRAS wild-type protein = HRAS wild-type protein (Homo sapiens, UniProt P01112); test: Binding to HRAS by surface plasmon resonance (SPR), KD and KD ratio to KRAS; conditions: ratio of the KD value with respect to HRAS wild-type protein to the KD value with respect to KRAS
Sequence of HRAS wild-type protein (P01112 whole entry): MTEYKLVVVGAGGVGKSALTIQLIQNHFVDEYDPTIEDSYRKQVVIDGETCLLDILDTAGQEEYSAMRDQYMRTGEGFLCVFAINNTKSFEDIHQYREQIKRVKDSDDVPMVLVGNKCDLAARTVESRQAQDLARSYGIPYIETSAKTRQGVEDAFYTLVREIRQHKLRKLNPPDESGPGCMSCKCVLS
Summary of the method: as §1

[3] = test system: human lung cancer strain NCI-H441; type: cell-based
Summary of the method: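 Step one: dispense the test compound in serial DMSO dilutions. Step three: add the reagent and measure […].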

Sequence of GDP-bound KRAS wild-type protein (P01116 1-188 isoform P01116-2): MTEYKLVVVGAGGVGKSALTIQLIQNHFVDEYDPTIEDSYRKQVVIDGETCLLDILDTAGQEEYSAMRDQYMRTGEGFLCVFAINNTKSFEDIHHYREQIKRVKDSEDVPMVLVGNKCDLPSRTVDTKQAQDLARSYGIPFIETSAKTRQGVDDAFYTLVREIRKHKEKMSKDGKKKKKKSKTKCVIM

SMILES: CC[C@H](C)[C@@H]1NC(=O)[C@H](CC(C)C)N(C)C(=O)C[C@@H](C(=O)N2CCOCC2)N(C)C(=O)[C@H](C2CCCC2)N(C)C(=O)[C@](C)(CC)NC(=O)[C@@H]2CCCN2C(=O)[C@H](CCc2cc(F)c(C(F)(F)F)c(F)c2)NC(=O)CN(C)C(=O)[C@H](Cc2ccc(C(F)(F)F)cc2)N2CCCCC[C@@H](C2=O)N(C)C(=O)CN(C)C1=O [PP0500]
Kd [1]: 18 nM
NRAS /KRAS [2]: B (a compound having 3 or more and less than 10 is denoted as B)
HRAS /KRAS (HRAS wild-type protein): B (a compound having 3 or more and less than 10 is denoted as B)
IC50 [3]: 963 nM

SMILES: CC[C@H](C)[C@@H]1NC(=O)[C@H](CC(C)C)N(C)C(=O)C[C@@H](C(=O)N2CCOCC2)N(C)C(=O)[C@H](C2CCC2)N(C)C(=O)C2(CCCC2)NC(=O)[C@@H]2CCCN2C(=O)[C@H](CCc2cc(F)c(C(F)(F)F)c(F)c2)NC(=O)CN(C)C(=O)[C@H](Cc2ccc(C(F)(F)F)cc2)N2CCCCC[C@@H](C2=O)N(C)C(=O)CN(C)C1=O [PP0504]
Kd [1]: 14 nM
NRAS /KRAS [2]: B (a compound having 3 or more and less than 10 is denoted as B)
HRAS /KRAS (HRAS wild-type protein): B (a compound having 3 or more and less than 10 is denoted as B)
IC50 [3]: 235 nM

SMILES: CC[C@H](C)[C@@H]1NC(=O)[C@H](CC(C)C)N(C)C(=O)C[C@@H](C(=O)N2C3CCC2COC3)N(C)C(=O)[C@H](C2CCCC2)N(C)C(=O)C2(CCCC2)NC(=O)[C@@H]2CCCN2C(=O)[C@H](CCc2cc(F)c(C(F)(F)F)c(F)c2)NC(=O)CN(C)C(=O)[C@H](Cc2ccc(C(F)(F)F)cc2)N2CCCCC[C@@H](C2=O)N(C)C(=O)CN(C)C1=O [PP0511]
Kd [1]: 16 nM
NRAS /KRAS [2]: A (a compound having 10 or more and less than 20 is denoted as A)
HRAS /KRAS (HRAS wild-type protein): B (a compound having 3 or more and less than 10 is denoted as B)
IC50 [3]: 414 nM

SMILES: CC[C@H](C)[C@@H]1NC(=O)[C@H](CC(C)C)N(C)C(=O)C[C@@H](C(=O)N2CCOCC2)N(C)C(=O)[C@H](C2CCCC2)N(C)C(=O)C2(CCCC2)NC(=O)[C@@H]2CCCN2C(=O)[C@H](CCc2ccc(C(F)(F)F)c(Cl)c2)NC(=O)CN(C)C(=O)[C@H](Cc2ccccc2)N2CCCC[C@@H](C2=O)N(C)C(=O)CN(C)C1=O [PP0529]
Kd [1]: 0.095 nM
NRAS /KRAS [2]: C (A compound having a KD ratio of 0.1 or more and less than 3 is denoted as C)
HRAS /KRAS (HRAS wild-type protein): B (a compound having 3 or more and less than 10 is denoted as B)
IC50 [3]: 6.5 nM

SMILES: CC[C@H](C)[C@@H]1NC(=O)[C@H](CC(C)C)N(C)C(=O)C[C@@H](C(=O)N2CCOCC2)NC(=O)[C@H](C2CCCC2)N(C)C(=O)C2(CCCC2)NC(=O)[C@@H]2CCCN2C(=O)[C@H](CCc2cc(F)c(C(F)(F)F)c(F)c2)NC(=O)CN(C)C(=O)[C@H](Cc2ccc(C(F)(F)F)cc2)N2CCCC[C@@H](C2=O)N(C)C(=O)CN(C)C1=O [PP0541]
Kd [1]: 0.47 nM
NRAS /KRAS [2]: B (a compound having 3 or more and less than 10 is denoted as B)
HRAS /KRAS (HRAS wild-type protein): B (a compound having 3 or more and less than 10 is denoted as B)
IC50 [3]: 83.3 nM

SMILES: CC[C@H](C)[C@@H]1NC(=O)[C@H](CC)N(C)C(=O)C[C@@H](C(=O)N2CCOCC2)N(C)C(=O)[C@H](C2CCCC2)N(C)C(=O)C2(CCCC2)NC(=O)[C@@H]2CCCN2C(=O)[C@H](CCc2cc(F)c(C(F)(F)F)c(F)c2)NC(=O)CN(C)C(=O)[C@H](Cc2ccc(C(F)(F)F)cc2)N2CCCC[C@@H](C2=O)N(C)C(=O)CN(C)C1=O [PP0550]
Kd [1]: 0.057 nM
NRAS /KRAS [2]: B (a compound having 3 or more and less than 10 is denoted as B)
HRAS /KRAS (HRAS wild-type protein): B (a compound having 3 or more and less than 10 is denoted as B)
IC50 [3]: 4.9 nM

SMILES: CC[C@H](C)[C@@H]1NC(=O)[C@H](CC(C)C)N(C)C(=O)C[C@@H](C(=O)N2CCOCC2)N(C)C(=O)[C@H](C2CCCC2)N(C)C(=O)C2(CCCC2)NC(=O)[C@@H]2CCCN2C(=O)[C@H](CCc2cc(F)c(C(F)(F)F)c(F)c2)NC(=O)CN(C)C(=O)[C@H](Cc2ccc(C(F)(F)F)cc2)N2CCCC[C@@H](C2=O)N(C)C(=O)[C@H](CC)N(C)C1=O [PP0551]
Kd [1]: 38 nM
NRAS /KRAS [2]: C (A compound having a KD ratio of 0.1 or more and less than 3 is denoted as C)
HRAS /KRAS (HRAS wild-type protein): B (a compound having 3 or more and less than 10 is denoted as B)
IC50 [3]: 401 nM

SMILES: CC[C@H](C)[C@@H]1NC(=O)[C@H](CC(C)C)N(C)C(=O)C[C@@H](C(=O)N2C3CCC2COC3)N(C)C(=O)[C@H](C2CCCC2)N(C)C(=O)C2(CCCC2)NC(=O)[C@@H]2CCCN2C(=O)[C@H](CCc2cc(F)c(C(F)(F)F)c(F)c2)NC(=O)CN(C)C(=O)[C@H](Cc2ccc(C(F)(F)F)cc2)N2CCCC[C@@H](C2=O)N(C)C(=O)CN(C)C1=O [PP0573]
Kd [1]: 0.34 nM
NRAS /KRAS [2]: B (a compound having 3 or more and less than 10 is denoted as B)
HRAS /KRAS (HRAS wild-type protein): B (a compound having 3 or more and less than 10 is denoted as B)
IC50 [3]: 8.7 nM

SMILES: CC[C@H](C)[C@@H]1NC(=O)[C@@H](CC(C)C)N(C)C(=O)C[C@@H](C(=O)N2CCOCC2)N(C)C(=O)[C@H](C2CCCC2)N(C)C(=O)C2(CCCC2)NC(=O)[C@@H]2CCCN2C(=O)[C@H](CCc2cc(F)c(C(F)(F)F)c(F)c2)NC(=O)CN(C)C(=O)[C@H](Cc2ccc(C(F)(F)F)cc2)N2CCCC[C@@H](C2=O)N(C)C(=O)CN(C)C1=O [PP0591]
Kd [1]: 87 nM
NRAS /KRAS [2]: B (a compound having 3 or more and less than 10 is denoted as B)
HRAS /KRAS (HRAS wild-type protein): B (a compound having 3 or more and less than 10 is denoted as B)
IC50 [3]: 3890 nM

Continued by falling Kd [1], values first:

Kd [1]: 0.97 nM
IC50 [3]: 119 nM
SMILES: CC[C@H](C)[C@@H]1NC(=O)[C@H](CC(C)C)N(C)C(=O)C[C@@H](C(=O)N2CCOCC2)N(C)C(=O)[C@H](C2CCCC2)N(C)C(=O)C2(CCCC2)NC(=O)[C@@H]2CCCN2C(=O)[C@H](CCc2ccc(C(F)(F)F)c(Cl)c2)NC(=O)CN(C)C(=O)[C@H](Cc2ccc(F)cc2)N2C/C=C\CC[C@@H](C2=O)N(C)C(=O)CN(C)C1=O [PP0607]
NRAS /KRAS [2]: C (A compound having a KD ratio of 0.1 or more and less than 3 is denoted as C)
HRAS /KRAS (HRAS wild-type protein): B (a compound having 3 or more and less than 10 is denoted as B)

Kd [1]: 0.76 nM
IC50 [3]: 36.1 nM
SMILES: CCO[C@@H]1C[C@H]2C(=O)NC3(CCC3)C(=O)N(C)[C@@H](C3CCCC3)C(=O)N(C)[C@H](C(=O)N(C)C)CC(=O)N(C)[C@@H](CC(C)C)C(=O)N[C@@H]([C@@H](C)CC)C(=O)N(C)CC(=O)N(C)[C@H]3CCCCCN(C3=O)[C@@H](Cc3ccc(C(F)(F)F)cc3)C(=O)N(C)CC(=O)N[C@@H](CCc3cc(F)c(C(F)(F)F)c(F)c3)C(=O)N2C1 [PP0469]
NRAS /KRAS [2]: B (a compound having 3 or more and less than 10 is denoted as B)
HRAS /KRAS (HRAS wild-type protein): B (a compound having 3 or more and less than 10 is denoted as B)

Kd [1]: 0.37 nM
IC50 [3]: 21.8 nM
SMILES: CC[C@H](C)[C@@H]1NC(=O)[C@H](CC(C)C)N(C)C(=O)C[C@@H](C(=O)N2CCOCC2)N(C)C(=O)[C@H](C2CCCC2)N(C)C(=O)C2(CCCC2)NC(=O)[C@@H]2CCCN2C(=O)[C@H](CCc2ccc(C(F)(F)F)c(Cl)c2)NC(=O)CN(C)C(=O)[C@H](Cc2ccccc2)N2CC=CC[C@@H](C2=O)N(C)C(=O)CN(C)C1=O [PP0528]
NRAS /KRAS [2]: C (A compound having a KD ratio of 0.1 or more and less than 3 is denoted as C)
HRAS /KRAS (HRAS wild-type protein): C (A compound having a KD ratio of 0.1 or more and less than 3 is denoted as C)

Kd [1]: 0.066 nM
IC50 [3]: 6.9 nM
SMILES: CC[C@H](C)[C@@H]1NC(=O)[C@H](CC(C)C)N(C)C(=O)C[C@@H](C(=O)N2CCOCC2)N(C)C(=O)[C@H](C2CCCC2)N(C)C(=O)C2(CCCC2)NC(=O)[C@@H]2CCCN2C(=O)[C@H](CCc2ccc(C(F)(F)F)c(Cl)c2)NC(=O)CN(C)C(=O)[C@H](Cc2ccc(Cl)cc2)N2CCCC[C@@H](C2=O)N(C)C(=O)CN(C)C1=O [PP0532]
NRAS /KRAS [2]: C (A compound having a KD ratio of 0.1 or more and less than 3 is denoted as C)
HRAS /KRAS (HRAS wild-type protein): B (a compound having 3 or more and less than 10 is denoted as B)

Kd [1]: 0.06 nM
IC50 [3]: 7 nM
SMILES: CC[C@H](C)[C@@H]1NC(=O)[C@H](CC(C)C)N(C)C(=O)C[C@@H](C(=O)N2CCOCC2)N(C)C(=O)[C@H](C2CCCC2)N(C)C(=O)C2(CCCC2)NC(=O)[C@@H]2CCCN2C(=O)[C@H](CCc2ccc(C(F)(F)F)c(Cl)c2)NC(=O)CN(C)C(=O)[C@H](Cc2ccc(F)cc2)N2CCCC[C@@H](C2=O)N(C)C(=O)CN(C)C1=O [PP0530]
NRAS /KRAS [2]: C (A compound having a KD ratio of 0.1 or more and less than 3 is denoted as C)
HRAS /KRAS (HRAS wild-type protein): B (a compound having 3 or more and less than 10 is denoted as B)

— EP4603105A1, “PHARMACEUTICAL COMPOSITION CONTAINING CYCLIC COMPOUND HAVING SELECTIVE KRAS INHIBITORY EFFECT AGAINST HRAS AND NRAS” (CHUGAI SEIYAKU KABUSHIKI KAISHA, priority 2022, dated 2024)
